Measurements from paper PMC11642016 (International Journal of Molecular Sciences, 2024).
Where “and” joins values, the source holds several entries; their conditions need not be identical. Equal entries are not always repeated. Where two headings read alike, the source gives them in different places.

Columns and labels:
[1] = tested on: Fadu cells; experiment: CellTiter-Glo luminescent cell viability assay, Fadu; settings: for Fadu Cell viability (% of controll) / Cell Viability (% of Control) 2.8 µM / Cell Viability (% of Control) 8.3 µM / Cell Viability (% of Control) 25 µM: 72 h; for Fadu Cell viability (% of controll): dose–response, individual replicates; for Cell Viability (% of Control) 2.8 µM / Cell Viability (% of Control) 8.3 µM / Cell Viability (% of Control) 25 µM: Fadu, mean ± SD, n = 2
[2] = tested on: PANC-1 cells; experiment: CellTiter-Glo luminescent cell viability assay, PANC-1; settings: for PANC-1 Cell viability (% of controll) / Cell Viability (% of Control) 2.8 µM / Cell Viability (% of Control) 8.3 µM / Cell Viability (% of Control) 25 µM: 72 h; for PANC-1 Cell viability (% of controll): dose–response, individual replicates; for Cell Viability (% of Control) 2.8 µM / Cell Viability (% of Control) 8.3 µM / Cell Viability (% of Control) 25 µM: PANC-1, mean ± SD, n = 2
[3] = tested on: non-tumorous primary fibroblast cells; experiment: CellTiter-Glo luminescent cell viability assay, primary fibroblasts; settings: for Primer fibroblast Cell viability (% of controll): 72 h, dose–response, individual replicates
Protocol: Primary fibroblast cultures were prepared from human skin biopsies and maintained in DMEM supplemented with 10% FBS, 1% penicillin-streptomycin, and 1% MEM Non-Essential Amino Acids Solution (Thermo Fisher Scientific). […] All cell lines were cultured in a humidified atmosphere at 37 °C and 5% CO2, passaged twice a week, and the experiments were performed on cells between passage 5 and 15. The cell lines were routinely screened for the absence of mycoplasma infection (DAPI staining).
The effects of the synthesized compounds on cell viability were measured using the CellTiter-Glo® luminescent cell viability assay (Promega, Madison, WI, USA), according to the manufacturer’s instructions. Briefly, cells were seeded onto a flat-bottomed, white 96-well plate (BRANDplates, cat. no.: 781965)), with the following densities: PANC-1: 750 cells/well, Fadu: 2000 cells/well, primary fibroblasts: 2000 cells/well, HEK293T WT: 1000 cells/well, HEK293T CLPP^−/−: 2500 cells/well. After seeding, cells were incubated for a further 48 h before treatment. Cells were treated with the compounds for 72 h. Three concentrations (25.0 µM; 8.3 µM; 2.8 µM) were applied during the initial cell viability screening, while for the determination of dose–response curves, 1.5-fold serially diluted compound concentrations were applied (range: 26 µM–0.7 µM). After treatment, the luminescence signal was recorded using a microplate reader (BioTek Synergy 2 Multi-Mode Reader, BioTek, Winooski, VT, USA).
Data analysis was performed using GraphPad Prism 9.5.0 software (GraphPad Software, San Diego, CA, USA). […] The dose–response curves were generated by four-parameter nonlinear regression, and the IC50 values were determined as the means ± SEM of the best-fit values of 3 independent measurements. The R^2 values were consistently above 0.93, indicating a strong fit of the model to the experimental data (Supplementary S.89). […] Dunnett’s post hoc test was applied to adjust for multiple comparisons, minimizing the likelihood of false positive results. Assumptions for ANOVA, including normality (assessed via QQ plots) and homogeneity of variance (tested using the Brown–Forsythe test), were verified. The following significance levels were applied: * p < 0.05, ** p < 0.01, *** p < 0.001, **** p < 0.0001. […] The tumor selectivity of the compounds was quantitatively characterized by the selectivity index (SI). This parameter was calculated as the ratio of the average best-fit IC50 value for primary fibroblasts and the best-fit IC50 value for the corresponding tumor cells (PANC-1 or Fadu).

[4] = tested on: PANC-1, Fadu, A2058 and EBC-1 cell lines; set-up: method as in PMID 35455465; settings: 10 µM; cited from earlier work
[5] = tested on: PANC-1 and A2058 cells; set-up: method as in PMID 35455465; settings: 24 h exposure time; cited from earlier work

With `NCC#Cc1ccc(CN2C(=O)C3=C(CCN(Cc4ccc(-n5cc(-[c-]6cccc6)nn5)cc4)C3)N3CCN=C23)cc1.[Fe+2].c1cc[cH-]c1` [I/A, reference compound] the “Fadu Cell viability (% of controll)” value ([1]; 0.7 μM) was 111 % of controll and 115 % of controll and 108 % of controll, the “Fadu Cell viability (% of controll)” value ([1]; 1 μM) was 110 % of controll and 112 % of controll and 109 % of controll and the “Fadu Cell viability (% of controll)” value ([1]; 1.5 μM) was 107 % of controll and 108 % of controll and 109 % of controll. The “Fadu Cell viability (% of controll)” value ([1]; 2.3 μM) was 109 % of controll (2×) and 104 % of controll, the “Fadu Cell viability (% of controll)” value ([1]; 3.4 μM) was 104 % of controll and 109 % of controll and 110 % of controll and the “Fadu Cell viability (% of controll)” value ([1]; 5.1 μM) was 105 % of controll and 106 % of controll and 102 % of controll. For the same molecule, the “Fadu Cell viability (% of controll)” value ([1]; 7.7 μM) was 99 % of controll and 86 % of controll and 82 % of controll, the “Fadu Cell viability (% of controll)” value ([1]; 17.3 μM) was 5 % of controll and 0 % of controll and 1 % of controll and the “Fadu Cell viability (% of controll)” value ([1]; 26 μM) was 0 % of controll. For the same molecule, the “Cell Viability (% of Control) 2.8 µM” value ([1]; first-set screening) was 105 ± 9 % of Control, the “Cell Viability (% of Control) 2.8 µM” value ([1]; second-set screening) was 105 ± 9 % of Control and the “Cell Viability (% of Control) 8.3 µM” value ([1]; first-set screening) was 66 ± 24 % of Control. The “Cell Viability (% of Control) 8.3 µM” value ([1]; second-set screening) was 66 ± 24 % of Control, the “Cell Viability (% of Control) 25 µM” value ([1]; first-set screening) was 0 ± 0 % of Control and the “Cell Viability (% of Control) 25 µM” value ([1]; second-set screening) was 0 ± 0 % of Control. For the same molecule, the “Selectivity Index (SI) Fibroblast/Fadu” value ([1]; ratio of mean best-fit IC50 for primary fibroblasts and best-fit IC50 for Fadu) was 1.5, the IC50 ([1]; read-out: Fadu IC50 values, Mean, mean of independently fitted replicate IC50 values (Supplement S.6)) was 10 µM and the IC50 ([1]; read-out: Fadu IC50 values, individual replicates n1-n3, IC50 independently determined for each replicate measurement (Supplement S.6)) was 11.2 µM and 9.27 µM and 9.61 µM. For the same molecule, the IC50 ([1]; read-out: IC50 Value ± SEM Fadu, 72 h treatment, best-fit values, n = 3) was 10 ± 0.23 µM, the “PANC-1 Cell viability (% of controll)” value ([2]; 0.7 μM) was 106 % of controll and 102 % of controll and 107 % of controll and the “PANC-1 Cell viability (% of controll)” value ([2]; 1 μM) was 109 % of controll and 116 % of controll and 115 % of controll. For the same molecule, the “PANC-1 Cell viability (% of controll)” value ([2]; 1.5 μM) was 110 % of controll and 105 % of controll and 115 % of controll, the “PANC-1 Cell viability (% of controll)” value ([2]; 2.3 μM) was 109 % of controll and 107 % of controll and 111 % of controll and the “PANC-1 Cell viability (% of controll)” value ([2]; 3.4 μM) was 108 % of controll and 109 % of controll and 112 % of controll. For the same molecule, the “PANC-1 Cell viability (% of controll)” value ([2]; 5.1 μM) was 99 % of controll and 97 % of controll and 119 % of controll, the “PANC-1 Cell viability (% of controll)” value ([2]; 7.7 μM) was 93 % of controll and 79 % of controll and 109 % of controll and the “PANC-1 Cell viability (% of controll)” value ([2]; 17.3 μM) was 0 % of controll and 2 % of controll and 1 % of controll. The “PANC-1 Cell viability (% of controll)” value ([2]; 26 μM) was 0 % of controll, the “Cell Viability (% of Control) 2.8 µM” value ([2]; first-set screening) was 108 ± 4 % of Control and the “Cell Viability (% of Control) 2.8 µM” value ([2]; second-set screening) was 108 ± 4 % of Control. The “Cell Viability (% of Control) 8.3 µM” value ([2]; first-set screening) was 39 ± 7 % of Control, the “Cell Viability (% of Control) 8.3 µM” value ([2]; second-set screening) was 39 ± 7 % of Control and the “Cell Viability (% of Control) 25 µM” value ([2]; first-set screening) was 0 ± 0 % of Control. The “Cell Viability (% of Control) 25 µM” value ([2]; second-set screening) was 0 ± 0 % of Control, the “Selectivity Index (SI) Fibroblast/PANC-1” value ([2]; ratio of mean best-fit IC50 for primary fibroblasts and best-fit IC50 for PANC-1) was 1.4 and the IC50 ([2]; read-out: IC50 Value ± SEM PANC-1, 72 h treatment, best-fit values, n = 3) was 10.7 ± 0.31 µM. For the same molecule, the IC50 ([2]; read-out: PANC-1 IC50 values, Mean, mean of independently fitted replicate IC50 values (Supplement S.6)) was 10.6 µM, the IC50 ([2]; read-out: PANC-1 IC50 values, individual replicates n1-n3, IC50 independently determined for each replicate measurement (Supplement S.6)) was 11.5 µM and 10.3 µM and 10.1 µM and the “Primer fibroblast Cell viability (% of controll)” value ([3]; 0.7 μM) was 96 % of controll and 98 % of controll and 99 % of controll. For the same molecule, the “Primer fibroblast Cell viability (% of controll)” value ([3]; 1 μM) was 100 % of controll and 103 % of controll and 99 % of controll, the “Primer fibroblast Cell viability (% of controll)” value ([3]; 1.5 μM) was 102 % of controll and 105 % of controll and 104 % of controll and the “Primer fibroblast Cell viability (% of controll)” value ([3]; 2.3 μM) was 102 % of controll (2×) and 104 % of controll. The “Primer fibroblast Cell viability (% of controll)” value ([3]; 3.4 μM) was 104 % of controll (2×) and 107 % of controll, the “Primer fibroblast Cell viability (% of controll)” value ([3]; 5.1 μM) was 107 % of controll and 109 % of controll and 98 % of controll and the “Primer fibroblast Cell viability (% of controll)” value ([3]; 7.7 μM) was 115 % of controll and 118 % of controll and 109 % of controll. For the same molecule, the “Primer fibroblast Cell viability (% of controll)” value ([3]; 17.3 μM) was 8 % of controll and 42 % of controll and 24 % of controll, the “Primer fibroblast Cell viability (% of controll)” value ([3]; 26 μM) was 0 % of controll and the IC50 ([3]; read-out: IC50 Value ± SEM Primary Fibroblast, 72 h treatment, best-fit values, n = 3) was 14.9 ± 0.46 µM. For the same molecule, the IC50 ([3]; read-out: Primary fibroblast IC50 values, Mean, mean of independently fitted replicate IC50 values (Supplement S.6), ONC201 value mathematically estimated from inflection point) was 15.2 µM, the IC50 ([3]; read-out: Primary fibroblast IC50 values, individual replicates n1-n3, IC50 independently determined for each replicate (Supplement S.6), ONC201 value mathematically estimated from inflection point, viability stayed above 50%) was 13.9 µM and 14.9 µM and 16.8 µM and the “viable cells after treatment in colony formation assays” value [4] was “no viable cells could be observed”. The apoptosis induction [5] was “far more efficient in apoptosis induction than ONC201”.
